Measured values: patent publication US20040052824A1, “Micellar colloidal pharmaceutical composition containing a lipophilic active principle” (priority 2000, published 2004)

Assay: not given
Conditions: cited from earlier work

Molecule	solubility in water
CC(=O)O[C@@]12CO[C@@H]1C[C@H](O)[C@@]1(C)C(=O)[C@H](O)C3=C(C)[C@@H](OC(=O)[C@H](O)[C@@H](NC(=O)OC(C)(C)C)c4ccccc4)C[C@@](O)([C@@H](OC(=O)c4ccccc4)[C@H]21)C3(C)C [docetaxel]	insoluble in water
CC(=O)O[C@H]1C(=O)[C@@]2(C)[C@H]([C@H](OC(=O)c3ccccc3)[C@]3(O)C[C@H](OC(=O)[C@H](O)[C@@H](NC(=O)c4ccccc4)c4ccccc4)C(C)=C1C3(C)C)[C@]1(OC(C)=O)CO[C@@H]1C[C@@H]2O [paclitaxel]	insoluble in water
ivermectin	practically insoluble in water

Assay: dissolution trials: solubility of the active principle in the cosurfactant
Assay type: physicochemical
Conditions: cosurfactant Capryol

solubility in propylene glycol monocaprylate (Capryol)	Molecule
5%	CC(=O)[C@H]1CC[C@H]2[C@@H]3CCC4=CC(=O)CC[C@]4(C)[C@H]3CC[C@]12C [progesterone]

Same assay, conditions: cosurfactant Transcutol

solubility in monoethyl ether of diethylene glycol (Transcutol)	Molecule
3%	CC1=C(/C=C/C(C)=C/C=C/C(C)=C\C(=O)O)C(C)(C)CCC1 [isotretinoin, 13-cis-retinoic acid]

Assay: not given
Conditions: chloroform/water; cited from earlier work

Molecule	partition coefficient chloroform/water: log P
ivermectin	3

Same assay, conditions: ethyl acetate/water; cited from earlier work

Molecule	partition coefficient ethyl acetate/water: log P
ivermectin	4

Assay: not given
Conditions: cited from earlier work
Remark: another data set of the same source

Molecule	log P
CCCSc1ccc2nc(NC(=O)OC)[nH]c2c1 [albendazole]	3.22

Same assay, conditions: octanol/water partition coefficient; cited from earlier work

Molecule	log P
CC(C)(Oc1ccc(CCNC(=O)c2ccc(Cl)cc2)cc1)C(=O)O [bezafibrate]	3.53
Cc1c([N+](=O)[O-])cc(C(C)(C)C)c(O)c1C(=O)Nc1ccc(Br)cc1C(F)(F)F [bromoxanide]	5.65
CC(=O)Oc1c(Br)cc(Cl)cc1C(=S)Nc1ccc(Br)cc1 [brotianide]	5.30
CCN(CC)C(=O)Nc1ccc(OCC(O)CNC(C)(C)C)c(C(C)=O)c1 (centres unmarked) [celiprolol]	2.07
CC(C)(Oc1ccc(C2CC2(Cl)Cl)cc1)C(=O)O (centres unmarked) [ciprofibrate]	3.15
CC(=O)Oc1c(I)cc(I)cc1C(=O)Nc1ccc(Cl)cc1 [clioxanide]	5.45
CCOC(=O)C(C)(C)Oc1ccc(Cl)cc1 [clofibrate]	3.65
Cc1cc(C(C#N)c2ccc(Cl)cc2)c(Cl)cc1NC(=O)c1cc(I)cc(I)c1O (centres unmarked) [closantel]	> 7
O=C(Nc1ccc(Br)cc1)c1cc(Br)ccc1O [dibromosalan]	5.18
Cc1c2ccncc2c(C)c2c1[nH]c1ccccc12 [ellipticine]	4.80
COC(=O)Nc1nc2ccc(Sc3ccccc3)cc2[nH]1 [fenbendazole]	4.26
CC(C)C(=O)Nc1ccc([N+](=O)[O-])c(C(F)(F)F)c1 [flutamide]	3.5
Cc1ccc(C)c(OCCCC(C)(C)C(=O)O)c1 [gemfibrozil]	3.90
CCC(C)n1ncn(-c2ccc(N3CCN(c4ccc(OCC5COC(Cn6cncn6)(c6ccc(Cl)cc6Cl)O5)cc4)CC3)cc2)c1=O (centres unmarked) [itraconazole]	5.68
CO[C@@H]1[C@@H](O[C@@H]2O[C@H](C)[C@@H](O[C@H]3C[C@@](C)(O)[C@@H](OC(=O)CC(C)C)[C@H](C)O3)[C@H](N(C)C)[C@H]2O)[C@@H](CC=O)C[C@@H](C)[C@@H](O)/C=C/C=C/C[C@@H](C)OC(=O)C[C@H]1OC(C)=O [josamycin]	2.39
CC[C@H](C)C(=O)O[C@H]1C[C@@H](C)C=C2C=C[C@H](C)[C@H](CC[C@@H]3C[C@@H](O)CC(=O)O3)[C@H]21 [lovastatin]	4.04
COC(=O)Nc1nc2ccc(C(=O)c3ccccc3)cc2[nH]1 [mebendazole]	3.10
Cc1cccc(Nc2ccccc2C(=O)O)c1C [mefenamic acid]	5.3

Molecule	log P
OC(c1cc(C(F)(F)F)nc2c(C(F)(F)F)cccc12)C1CCCCN1 (centres unmarked) [mefloquin]	3.36
CC1=CC(=O)c2ccccc2C1=O [menadione]	8
CC[C@H](C)C(=O)O[C@H]1CCC=C2C=C[C@H](C)[C@H](CC[C@@H]3C[C@@H](O)CC(=O)O3)[C@H]21 [mevastatin]	3.52
CCOC(=O)C1=C(C)NC(C)=C(C(=O)OC)C1c1cccc([N+](=O)[O-])c1 (centres unmarked) [nitrendipine]	3.7
Cc1nccn1CC1CCc2c(c3ccccc3n2C)C1=O (centres unmarked) [ondansetron]	2.63
O=C(Nc1cc(Cl)cc(Cl)c1O)c1c(O)c(Cl)cc(Cl)c1Cl [oxyclozanide]	5.35
O=C1c2ccccc2C(=O)C1c1ccccc1 [phenyl indanedione]	2.90
O=C(Nc1ccc(Oc2ccc(Cl)cc2)c(Cl)c1)c1cc(I)cc(I)c1O [rafoxanide]	8.75
CC1=C(/C=C/C(C)=C/C=C/C(C)=C/CO)C(C)(C)CCC1 [retinol]	5.68
CC[C@H]1OC(=O)[C@H](C)[C@@H](O[C@H]2C[C@@](C)(OC)[C@@H](O)[C@H](C)O2)[C@H](C)[C@@H](O[C@@H]2O[C@H](C)C[C@H](N(C)C)[C@H]2O)[C@](C)(O)C[C@@H](C)/C(=N\OCOCCOC)[C@H](C)[C@@H](O)[C@]1(C)O [roxithromycin]	~2.5
CCCc1nc2c(C)cc(-c3nc4ccccc4n3C)cc2n1Cc1ccc(-c2ccccc2C(=O)O)cc1 [telmisartan]	4.8
CN(C/C=C/C#CC(C)(C)C)Cc1cccc2ccccc12 [terbinafin]	5.42
CC(C)(C)c1ccc(C(O)CCCN2CCC(C(O)(c3ccccc3)c3ccccc3)CC2)cc1 (centres unmarked) [terfenadine]	3.22
c1ccc2[nH]c(-c3cscn3)nc2c1 [tiabendazole]	2.31
OCCSCCCCCCCCCCSCCO [tiadenol]	4.58
O=C(Nc1ccc(Br)cc1)c1cc(Br)cc(Br)c1O [tribromosalan]	5.86
CSc1nc2cc(Cl)c(Oc3cccc(Cl)c3Cl)cc2[nH]1 [triclabendazole]	6.45
COC(=O)[C@@H]1[C@H]2C[C@H]3c4[nH]c5ccccc5c4CCN3C[C@@H]2CC[C@@H]1O [yohimbine]	2.73
